The subject of experiment [1] is HCV RLuc subgenomic replicon (genotype 1b) in Huh-7.5 cells. Briefly: HCV subgenomic replicon assay (Renilla luciferase). It counts as cell-based, hepatitis C virus. The settings on record: Hepatitis C virus. From the text: An HCV Renilla luciferase reporter construct (HCV RLuc; Huang, et al. (2006) Hepatology 43:81-90) was used to measure the effect of each compound on cellular HCV RNA levels. In HCV RLuc, the HCV internal ribosome entry site (IRES) drives the translation of the neomycin and Renilla luciferase genes while the HCV nonstructural proteins (NS3 to NS5B) are translated from the Encephalomyocarditis virus IRES (Huang, et al. (2006) supra). The plasmid DNA was cleaved with ScaI, purified by phenol/chloroform extraction followed by ethanol precipitation, and used as template for RNA transcription using […] T7 RNA transcription kit (Ambion, Austin, Tex.). The RNA transcripts were treated with 2 U DNase I (Ambion) at 37° C. for 30 minutes, purified by acid phenol/chloroform extraction, followed by isopropanol precipitation, and suspended in diethylpyrocarbonate-treated water. RNA concentration was determined by spectrophotometry by measuring the A260. RNA integrity and size was checked on 1% agarose gel. Transcribed RNA was stored in aliquots at −80° C. until needed.
Huh-7.5 cells were transfected with HCV RNA by electroporation. Briefly, subconfluent Huh7.5 cells were trypsinized, suspended in complete growth medium, and centrifuged at 1,000×g for 5 minutes at 4° C. The cell pellets were then washed twice with ice-cold phosphate-buffered saline (PBS) and suspended at 1.75×10^7 cells/mL in ice-cold PBS. Replicon RNA (5 μg) was mixed with 0.4 mL of cell suspension and transferred to 2 mm gap width electroporation cuvette (EPPENDORF AG, Germany) and pulsed 5 times for 99 μsec at 820 V over 1.1 sec intervals using the ECM 830 electroporator instrument (BTX Harvard Apparatus, Holliston, Mass.). After a 5 minute recovery period at room temperature, cells were transferred to 10 ml complete growth medium, and seeded into 10 cm diameter cell culture dishes. Twenty-four hours after transfection, the medium was replaced with fresh complete DMEM supplemented with 1 mg/ml geneticin (Invitrogen) and the medium was replaced every three to four days with fresh medium containing 1 mg/mL geneticin. Geneticin-resistant colonies were selected for a period of two weeks and expanded in the presence of 250 μg/mL geneticin.
HCV RLuc replicon cells were seeded at a density of 10×10^3 cells per well in 96-well plates and incubated for 4-5 hours to allow the cells to attach to the plate. The compounds dissolved in dimethyl sulfoxide (DMSO) were added at a final concentration of 10 μM (DMSO solvent final concentration was 0.5%) and the cells were incubated for 72 hours at 37° C. under 5% CO2 atmosphere. The effects of compounds on HCV replication were then assessed by measuring the Renilla luciferase activity in compound-treated versus DMSO-treated cells. At the end of the incubation period, the medium was aspirated and the cells were washed with 1×PBS. The Renilla luciferase reporter gene assay was performed using the Renilla luciferase assay kit (PROMEGA, Madison, Wis.) according to the manufacturer's instructions. Briefly, the cells were lysed by addition of 50 μL of 1× Renilla luciferase lysis buffer followed by two cycles of freeze/thaw. The luciferase activity content of the lysate was measured with a FLUOSTAR Omega microplate reader instrument (BMG Labtech, Germany) after injecting 50 μL of luciferase substrate and reading for 5 seconds.
To determine if the above identified compounds might be useful as HCV antiviral agents, they were added to cells harboring HCV subgenomic RNA replicon. The HCV replicon chosen was derived from the same HCV strain (genotype 1b) as the NS3 protein used for screening and enzyme assays. […] 75:4614-4624; Blight, et al. (2002) J. Virol. 76:13001-13014). […]
For orientation: Replicon systems follow genome replication, usually without infectious particles.

The target of experiment [2] is T1, HCV NS3 helicase NS3h_1b(con1) (Hepatitis C virus genotype 1b, UniProt Q9WMX2).
T1 construct: truncated C-terminally His-tagged NS3 proteins lacking the N-terminal protease, called NS3h; His-tag (C); made in house
T1 sequence (Q9WMX2 1192-1657): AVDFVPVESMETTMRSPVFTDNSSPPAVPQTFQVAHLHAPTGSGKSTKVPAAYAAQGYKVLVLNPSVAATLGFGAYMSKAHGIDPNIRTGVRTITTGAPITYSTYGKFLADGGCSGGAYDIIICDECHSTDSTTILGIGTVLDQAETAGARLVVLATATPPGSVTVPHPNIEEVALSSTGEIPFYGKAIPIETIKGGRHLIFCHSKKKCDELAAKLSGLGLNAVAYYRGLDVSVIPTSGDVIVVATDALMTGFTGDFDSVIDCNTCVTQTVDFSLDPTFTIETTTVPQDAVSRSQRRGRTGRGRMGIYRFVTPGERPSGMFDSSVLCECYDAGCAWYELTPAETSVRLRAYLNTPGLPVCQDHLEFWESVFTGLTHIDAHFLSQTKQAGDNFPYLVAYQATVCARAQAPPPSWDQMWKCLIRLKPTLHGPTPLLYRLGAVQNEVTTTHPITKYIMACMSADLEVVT
As to the kind of experiment: biochemical. The format is biochemical, hepatitis C virus genotype 1b(con1). The text has this:
All oligonucleotides were purchased from Integrated DNA Technologies (IDT, Coralville, Iowa). The partially duplex DNA substrates used in MBHAs consisted of a helicase substrate forming 25 base pairs and consists of a 45-mer bottom strand 5′-GCTCCCCGTTCATCGATTGGGGAGC(T)20-3′ (SEQ ID NO:1) and the 25-mer HCV top strand 5′-Cy5-GCTCCCCAATCGATGAACGGGGAGC-IBRQ-3′ (SEQ ID NO:2). The 19 base pair RNA substrate used in MBHAs was composed of a 39 nucleotide long bottom strand 5′-AGU GCC UUG ACG AUA CAG C(U)20-3′ (SEQ ID NO:3) and the 24 nucleotide long top strand 5′-Tye^665-AGUGCGCUGUAUCGUCAAGGCACU-IBRQSp-3′ (SEQ ID NO:4). Underlined areas denote hairpin-forming regions. DNA and RNA substrates were annealed and purified as described previously (Belon & Frick (2008) BioTechniques 45:433-40, 442).
The cloning, expression, and purification of His-tagged recombinant HCV NS3 protein have been described previously (Lam, et al. (20030 J. Virol. 77:3950-61; Heck, et al. (2008) Antimicrob. Agents Chemother. 52:1901-11; Frick et al. (2010) Methods Mol. Biol. 587:223-233; Belon, et al. & Frick (2009) J. Mol. Biol. 388:851-864).
All molecular beacon-based helicase assays (MBHAs) were performed according to known methods (Belon & Frick (2008) supra; Belon & Frick (2009) supra). […] In each flat, black 384-well plate, 56 compounds were tested, in triplicate, along with three negative controls (DMSO only), three positive controls (500 nM dT20), and two wells with no enzyme. Fluorescence was read before ATP (F0) addition and 30 minutes after ATP was added to 1 mM (F30) using a Tecan Infinite M200 fluorescence microplate reader with excitation and emission wavelengths set to 643 and 670 nm, respectively. Percent inhibition was calculated with equation 1, and compound interference in the MBHA was calculated with equation 2.
To monitor helicase reaction kinetics and to calculate IC50 values, MBHAs were performed in 60 μL in white ½ area 96-well plates and measured in a Thermo Varioscan Multimode reader (Thermo Scientific) using the 643 nm excitation wavelength and 667 emission wavelengths. Reactions were again performed by first incubating all components except for ATP for two minutes, then initiated by injecting in 1/10 volume of ATP such that the final concentration of all components was as noted above. Conditions were as described above except that 5% v/v DMSO was present in each assay. Initial reaction velocities were calculated by fitting first-order decay equation to data obtained after ATP addition and calculating an initial velocity form the resulting amplitude and rate constant.
[formula] where, v0 is the velocity observed in DMSO-only controls inhibition, h is the Hillslope coefficient, [I] is the concentration of test compound.

[3] abbreviates: Huh7.5, 10 μM, read-out: Replicon (% Inhibition @ 10 μM).
The mark [4] stands for this setting: genotype 1b (con1), read-out: Target Potency MBHA (IC50 avg., μM) 1b (con1).
[5] abbreviates: Huh7.5, 10 μM compound, triplicate, average ± SD, read-out: HCV replication (% Inh.).
Setting [6] is: MBHA, DNA unwinding, mean ± SD of three titrations, read-out: Helicase IC50.
The mark [7] stands for this setting: standard HCV helicase MBHA (Table 9), read-out: DNA Unwinding IC50.
Setting [8] is: DNA-based MBHA, genotype 1b, read-out: DNA Helicase NS3h_1b IC50 (μM) ± SD.

Like-named read-outs stand apart in the source and are kept apart here. Where only a bound is given, the exact number is not on record here.

Usually IC50 stands for the concentration needed to halve the response being measured. Take `Cc1ccc2nc(-c3ccc4nc(-c5ccc(NC(=O)c6ccc7ncoc7c6)cc5)sc4c3)sc2c1S(=O)(=O)O`: the inhibition at 10 µM in experiment [1] (setting [3]) came to 15 ± 11%. For the same compound, the IC50 in experiment [2] (setting [4]) turned out to be 3.6 ± 1 µM.

Turning to `Cc1ccc2nc(-c3ccc4nc(-c5ccc(NS(=O)(=O)c6ccc(C(F)(F)F)cc6)cc5)sc4c3)sc2c1S(=O)(=O)O`, in experiment [1] (setting [3]), the inhibition at 10 µM is -7 ± 14%. The IC50 in experiment [2] (setting [4]) was 32 ± 16 µM.

In the case of `Cc1ccc2nc(-c3ccc(NC(=O)c4ccc(C(F)(F)F)cc4)cc3)sc2c1S(=O)(=O)O`, the inhibition at 10 µM in experiment [1] (setting [3]) was 11 ± 14%. Moreover, the IC50 in experiment [2] (setting [4]) was greater than 100 µM.

Turning to `Cc1ccc2nc(-c3ccc(NC(=O)c4ccc(N)cc4)cc3)sc2c1S(=O)(=O)O`, the inhibition at 10 µM in experiment [1] (setting [3]) is 21 ± 29%. In addition, the IC50 in experiment [2] (setting [4]) stood at 69 ± 26 µM.

In the case of `Cc1ccc2nc(-c3ccc(NC(=O)c4ccc(NS(=O)(=O)c5ccccc5)cc4)cc3)sc2c1S(=O)(=O)O`, in experiment [1] (setting [3]), the inhibition at 10 µM was -73 ± 50%. In experiment [2] (setting [4]), the concentration for half-maximal inhibition (IC50) is greater than 100 µM.

Regarding `Cc1ccc2nc(-c3ccc(NC(=S)Nc4ccccc4Br)cc3)sc2c1`, the inhibition at 10 µM in experiment [1] (setting [3]) was 80 ± 17%. For the same compound, the IC50 in experiment [2] (setting [4]) is greater than 100 µM.

With `Cc1ccc2nc(-c3ccc4nc(NC(=O)c5ccc6ncoc6c5)sc4c3)sc2c1`, the inhibition at 10 µM in experiment [1] (setting [3]) was 90 ± 35%. In addition, the IC50 in experiment [2] (setting [4]) amounted to 60 ± 6.1 µM.

`Cc1ccc2nc(-c3ccc4nc(-c5ccc(NC(=O)c6ccccc6)cc5)sc4c3)sc2c1S(=O)(=O)O` [Compound 5, 2′-(4-benzamidophenyl)-6-methyl-[2,6′-bibenzo[d]thiazole]-7-sulfonic acid]: the inhibition at 10 µM in experiment [1] (setting [5]) and in experiment [1] (setting [3]) was 45 ± 5% throughout. For the same compound, the IC50 in experiment [2] (setting [6]) came to 11 ± 1.5 µM; in experiment [2] (setting [4]) it was 10.7 ± 1.5 µM; in experiment [2] (setting [7]), 11 ± 2 µM.

Turning to `Cc1ccc2nc(-c3ccc4nc(-c5ccc(NC(=O)c6ccc(N)cc6)cc5)sc4c3)sc2c1S(=O)(=O)O` [Compound 6, 2′-(4-(4-aminobenzamido)phenyl)-6-methyl-[2,6′-bibenzo[d]thiazole]-7-sulfonic acid], the inhibition at 10 µM in experiment [1] (setting [5]) and in experiment [1] (setting [3]) was 33 ± 1% each time. Further, the IC50 turned out to be 10 ± 2.4 µM in experiment [2] (setting [8]), 10 ± 2.4 µM in experiment [2] (setting [6]), 10.3 ± 2.4 µM in experiment [2] (setting [4]) and 10 ± 2 µM in experiment [2] (setting [7]).

Turning to `Cc1ccc2nc(-c3ccc4nc(-c5ccc(NC(=O)c6ccc(F)cc6)cc5)sc4c3)sc2c1S(=O)(=O)O.N` [Compound 7, 2′-(4-(4-fluorobenzamido)phenyl)-6-methyl-[2, bibenzo[d]thiazole]-7-sulfonic acid], the inhibition at 10 µM in experiment [1] (setting [5]) and in experiment [1] (setting [3]) was 50 ± 5% each time. In addition, the IC50 was 5 ± 0.6 µM in experiment [2] (setting [8]), 5.2 ± 0.6 µM in experiment [2] (setting [6]), 5.2 ± 0.6 µM in experiment [2] (setting [4]) and 5 ± 1 µM in experiment [2] (setting [7]).

For the compound `COc1ccc(C(=O)Nc2ccc(-c3nc4ccc(-c5nc6ccc(C)c(S(=O)(=O)O)c6s5)cc4s3)cc2)cc1` [Compound 8, 2′-(4-(4-methoxybenzamido)phenyl)-6-methyl-[2,6′-bibenzo[d]thiazole]-7-sulfonic acid], the inhibition at 10 µM in experiment [1] (Huh7.5, read-out: HCV replication (% Inh.)) was found to be 64 ± 4%; in experiment [1] (Huh7.5, read-out: Replicon (% Inhibition @ 10 μM)) it was 64 ± 4%. Moreover, the IC50 in experiment [2] (DNA Unwinding IC50, standard HCV helicase MBHA (Table 9)) came to 10 ± 3 µM; in experiment [2] (Helicase IC50, MBHA, DNA unwinding, mean ± SD of three titrations), 10 ± 2.6 µM; in experiment [2] (Target Potency MBHA (IC50 avg., μM) 1b (con1), genotype 1b (con1)), 10 ± 2.6 µM.

Consider `COC(=O)c1ccc(C(=O)Nc2ccc(-c3nc4ccc(-c5nc6ccc(C)c(S(=O)(=O)O)c6s5)cc4s3)cc2)cc1` [Compound 9, 2′-(4-(4-(methoxycarbonyl)benzamido)phenyl)-6-methyl-[2,6′-bibenzo[d]thiazole]-7-sulfonic acid], for which the inhibition at 10 µM in experiment [1] (setting [5]) and in experiment [1] (setting [3]) was 40 ± 1% throughout. Also, the values for the IC50 in experiment [2] (setting [6]), in experiment [2] (setting [4]) and in experiment [2] (setting [7]) were 9.7 ± 4.6 µM, 9.7 ± 4.6 µM and 10 ± 5 µM, respectively.

Consider `Cc1ccc2nc(-c3ccc4nc(-c5ccc(NC(=O)c6cccnc6)cc5)sc4c3)sc2c1S(=O)(=O)O` [Compound 31, 6-methyl-2′-(4-(nicotinamido)phenyl)-[2,6′-bibenzo[d]thiazole]-7-sulfonic acid], for which the inhibition at 10 µM in experiment [1] (setting [5]) and in experiment [1] (setting [3]) was 51 ± 22% in each case.

Take `Cc1ccc2nc(-c3ccc4nc(-c5ccc(NC(=O)c6ccncc6)cc5)sc4c3)sc2c1S(=O)(=O)O` [Compound 32, 2′-(4-(isonicotinamido)phenyl)-6-methyl-[2,6′-bibenzo[d]thiazole]-7-sulfonic acid]: the inhibition at 10 µM in experiment [1] (setting [5]) and in experiment [1] (setting [3]) was 59 ± 13% in each case.

As to `Cc1ccc2nc(-c3ccc4nc(-c5ccc(N)cc5)sc4c3)sc2c1S(=O)(=O)O` [Compound P2a, 2′-(4-aminophenyl)-6-methyl-[2,6′-bibenzo[d]thiazole]-7-sulfonic acid], the IC50 was found to be 45 ± 14 µM in experiment [2] (setting [8]), 49 µM in experiment [2] (setting [6]) and 6 ± 2 µM in experiment [2] (setting [7]). Besides, in experiment [2] (versus P4), the “times lower affinity towards NS3 than P4” value is listed as 10-20 times.
